One block for each compound: values may come before it. Active and inactive are the calls of the source. No cut-off for these calls is given here.
Columns and labels:
[1] = Inhibition of rat recombinant FLAG-tagged PTGES expressed in baculovirus infected Hi-5 insect cells using prostaglandin H2 as substrate incubated for 20 mins followed by substrate addition and incubated for 60 sec by TR-FRET assay
[2] = target: T1, Prostaglandin E synthase (Mus musculus, UniProt Q9JM51); assay: Inhibition of mouse recombinant FLAG-tagged PTGES expressed in baculovirus infected Hi-5 insect cells using prostaglandin H2 as substrate incubated for 20 mins followed by substrate addition and incubated for 60 sec by TR-FRET assay
T1 sequence (Q9JM51 whole entry): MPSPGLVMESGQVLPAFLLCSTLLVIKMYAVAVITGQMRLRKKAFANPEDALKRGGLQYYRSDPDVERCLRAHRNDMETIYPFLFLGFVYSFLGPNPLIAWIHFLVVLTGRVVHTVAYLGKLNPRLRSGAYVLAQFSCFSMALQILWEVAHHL

[3] = target: T2, Prostaglandin E synthase (Homo sapiens, UniProt O14684); assay: Inhibition of human recombinant FLAG-tagged PTGES expressed in baculovirus infected Hi-5 insect cells using prostaglandin H2 as substrate preincubated for 20 mins followed by substrate addition and incubated for 60 sec by TR-FRET assay
T2 sequence (O14684 whole entry): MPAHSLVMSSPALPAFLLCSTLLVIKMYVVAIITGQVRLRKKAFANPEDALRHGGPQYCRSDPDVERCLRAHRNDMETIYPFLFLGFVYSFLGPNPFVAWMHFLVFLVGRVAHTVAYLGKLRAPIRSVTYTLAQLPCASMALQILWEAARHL

[4] = Hepatic extraction ratio in Han Wistar rat liver microsomes at 1 uM measured upto 90 mins by LC-MS/MS; type: ADME, Microsome; conditions: read-out: ERH
[5] = tested on: Mus musculus; assay: Antinociceptive activity in C57BL/6 mouse model of complete Freund's adjuvant-induced inflammatory pain assessed as inhibition of PGE2 production at 30 to 100 mg/kg, po administered after 2 days of CFA induction and measured after 1 hr by ELISA; type: functional, organism-based
[6] = Ratio of unbound drug level in CFA-induced mouse to IC50 for mouse recombinant FLAG-tagged PTGES inhibition; type: ADME; conditions: in vivo
[7] = tested on: Rattus norvegicus; assay: Antihyperalgesia activity in Sprague-Dawley rat endometriosis model assessed as decrease in proliferation of lesions by measuring expression of Ki67 at 75 mg/kg, po bid administered for 3 to 5 weeks of post surgery by RT-PCR analysis; type: functional, organism-based
[8] = Efflux ratio of apparent permeability from basolateral to apical over apical to basolateral side in human Caco2 cells at 2 uM incubated for 2 hrs by LC/MS/MS analysis; type: ADME, cell-based; conditions: Caco-2
[9] = Volume of distribution at steady state in Wistar rat blood at 0.5 to 1 mg/kg, […] 0.5 to 10 mg/kg, ig measured upto 24 hrs by LC-MS/MS; type: ADME, organism-based; conditions: in vivo
[10] = tested on: Mus musculus; assay: Antinociceptive activity in C57BL/6 mouse model of complete Freund's adjuvant-induced inflammatory pain assessed as reduction in pain-related behavior at 30 to 100 mg/kg, po administered after 2 days of CFA induction and measured after 1 hr by using Plexiglas chamber; type: functional, organism-based
[11] = Oral bioavailability in Wistar rat at 0.5 to 1 mg/kg measured upto 24 hrs by LC-MS/MS; type: ADME, organism-based; conditions: in vivo
[12] = tested on: Rattus norvegicus; assay: Antihyperalgesia activity in Sprague-Dawley rat endometriosis model assessed as viscero-motor response at 75 mg/kg, po bid administered for 3 to 5 weeks of post surgery by EMG method; type: functional, organism-based
[13] = Half life in Wistar rat blood at 0.5 to 1 mg/kg, […] 0.5 to 10 mg/kg, ig LC-MS/MS; type: ADME, organism-based; conditions: whole blood
[14] = Total blood clearance in Wistar rat blood at 0.5 to 1 mg/kg, […] 0.5 to 10 mg/kg, ig measured upto 24 hrs by LC-MS/MS; type: ADME, organism-based; conditions: whole blood
[15] = tested on: Rattus norvegicus; assay: Antihyperalgesia activity in Sprague-Dawley rat endometriosis model assessed as viscero-motor response at 75 mg/kg, po bid administered for 3 to 5 weeks of post surgery and measured after 1 week by EMG method; type: functional, organism-based
[16] = Apparent permeability across apical to basolateral side in human Caco2 cells measured at 2 uM incubated for 2 hrs by LC/MS/MS analysis; type: ADME, cell-based; conditions: Caco-2
[17] = tested on: Mus musculus; assay: Antinociceptive activity in C57BL/6 mouse model of complete Freund's adjuvant-induced inflammatory pain assessed as inhibition of PGE2 production at 100 mg/kg, po administered after 2 days of CFA induction and measured after 1 hr by ELISA; type: functional, organism-based
[18] = Selectivity ratio of IC50 for mouse recombinant FLAG-tagged PTGES to human recombinant FLAG-tagged PTGES expressed in baculovirus infected Hi-5 insect cells using prostaglandin H2 as substrate preincubated for 20 mins followed by substrate addition and incubated for 60 sec by TR-FRET assay

IC50 [3]: > 20 µM
SMILES: Cc1c(CCC(=O)O)cccc1NC(=O)C(c1ccc(-c2ccccn2)cc1)C1CCCC1 (stereo not given)

hepatic extraction ratio at […], 1 µM [4]: 0.02
Ratio [6]: 3
efflux ratio at 2 h, 2 µM [8]: 2.9
Vdss [9]: 0.9 L/kg
bioavailability [11]: 98%
IC50 [2]: 765 nM
half-life [13]: 258 min
CL/F [14]: 5 mL/min/kg
Papp A→B at 2 h, 2 µM [16]: 6.9 ×10⁻⁶ cm/s
SMILES: Cc1c(CCC(=O)O)cccc1NC(=O)[C@@H](c1ccc(-c2cncc(Cl)c2)cc1)C1CCCC1
Activity [5]: Active
IC50 [1]: 1270 nM
Activity [7]: Active
Activity [10]: Active
Activity [12]: Active
Activity [15]: Active

bioavailability [11]: 72%
Papp A→B at 2 h, 2 µM [16]: 5.9 ×10⁻⁶ cm/s
SMILES: Cc1c(CCC(=O)O)cccc1NC(=O)[C@@H](c1ccc(-c2cncc(Cl)c2)c(F)c1)C1CCCC1

IC50 [3]: 2.33 µM
SMILES: Cc1c(CCC(=O)O)cccc1NC(=O)C(c1ccc(-c2cncc(Cl)c2)cn1)C1CCCC1 (stereo not given)

IC50 [3]: 0.276 µM
SMILES: Cc1c(CCC(=O)O)cccc1NC(=O)C(c1ccc(-c2cccc(Cl)c2)cc1)C1CCCC1 (stereo not given)

IC50 [3]: > 20 µM
SMILES: O=C(O)CCc1cccc(NC(=O)C(c2ccc(-c3cncc(Cl)c3)cc2)C2CCCC2)c1OC(F)(F)F (stereo not given)

IC50 [2]: 818 nM
SMILES: Cc1cncc(-c2ccc(C(C(=O)Nc3cccc(CCC(=O)O)c3C)C3CCCC3)cc2)c1 (stereo not given)
IC50 [1]: 2590 nM

IC50 [3]: > 20 µM
SMILES: Cc1ncccc1-c1ccc(C(C(=O)Nc2cccc(CCC(=O)O)c2C)C2CCCC2)cc1 (stereo not given)

IC50 [3]: 9.26 µM
SMILES: Cc1c(CCC(=O)O)cccc1NC(=O)C(c1ccc(-c2ccncc2)cc1)C1CCCC1 (stereo not given)

bioavailability [11]: 8%
Papp A→B at 2 h, 2 µM [16]: 0.22 ×10⁻⁶ cm/s
SMILES: Cc1c(NC(=O)[C@@H](c2ccc(-c3cncc(Cl)c3)cc2)C2CCCC2)cccc1OCC(=O)O

IC50 [2]: 191 nM
SMILES: Cc1c(CCC(=O)O)cccc1NC(=O)C(c1ccc(-c2cncc(CC(C)C)c2)cc1)C1CCCC1 (stereo not given)

Papp A→B at 2 h, 2 µM [16]: 3.6 ×10⁻⁶ cm/s
SMILES: Cc1c(CCC(=O)O)cccc1NC(=O)[C@@H](c1ccc(-c2cccnc2)cc1)C1CCCC1

bioavailability [11]: 73%
Papp A→B at 2 h, 2 µM [16]: 8 ×10⁻⁶ cm/s
SMILES: Cc1c(CCC(=O)O)cccc1NC(=O)[C@@H](c1ccc(-c2cncc(C(F)(F)F)c2)cc1)C1CCCC1

IC50 [3]: 0.327 µM
SMILES: Cc1c(CCC(=O)O)cccc1NC(=O)C(c1ccc(-c2cncc(Cl)c2)nc1)C1CCCC1 (stereo not given)

Second part, the compound before the results:

SMILES: Cc1c(NC(=O)[C@@H](c2ccc(-c3cncc(Cl)c3)cc2)C2CCCC2)cccc1[C@@H](C)CC(=O)O
IC50 [1]: 1360 nM
IC50 [2]: 584 nM

SMILES: Cc1c(CCC(=O)O)cccc1NC(=O)C(c1ccc(-c2cncc(Cl)c2)cc1)C1CCN(C)C1=O (stereo not given)
IC50 [3]: > 20 µM

SMILES: Cc1c(CCC(=O)O)cccc1N(C)C(=O)C(c1ccc(-c2cncc(Cl)c2)cc1)C1CCCC1 (stereo not given)
IC50 [3]: > 20 µM

SMILES: Cc1c(CCC(=O)O)cccc1NC(=O)C(c1ccccc1)c1ccc(-c2cncc(Cl)c2)cc1 (stereo not given)
IC50 [3]: 4.49 µM

SMILES: O=C(O)CCc1ccc(NC(=O)C(c2ccc(-c3cncc(Cl)c3)cc2)C2CCCC2)cc1 (stereo not given)
IC50 [3]: > 20 µM

SMILES: Cc1c(NC(=O)[C@H](c2ccc(-c3cncc(Cl)c3)cc2)C2CCCC2)cccc1[C@@H](C)CC(=O)O
IC50 [1]: 17700 nM
IC50 [2]: 12600 nM

SMILES: CC(C)Cc1ccc(C(C)C(=O)O)cc1 (stereo not given)
Activity [17]: Active

SMILES: Cc1c(CCC(=O)O)cccc1NC(=O)C(c1cccc(-c2ccccc2)c1)C1CCCC1 (stereo not given)
IC50 [3]: 5.86 µM

SMILES: Cc1ccc(-c2ccc(C(C(=O)Nc3cccc(CCC(=O)O)c3C)C3CCCC3)cc2)cn1 (stereo not given)
Ratio IC50 [18]: 5

SMILES: Cc1c(NC(=O)[C@@H](c2ccc(-c3cncc(Cl)c3)cc2)C2CCCC2)cccc1[C@H](C)CC(=O)O
IC50 [1]: 895 nM
IC50 [2]: 339 nM

SMILES: Cc1c(CCC(=O)O)cccc1C(=O)NC(c1ccc(-c2cncc(Cl)c2)cc1)C1CCCC1 (stereo not given)
IC50 [3]: > 20 µM

SMILES: CC[C@@H](CC(=O)O)c1cccc(NC(=O)C(c2ccc(-c3cncc(CC(C)C)c3)cc2)C2CCCC2)c1C (stereo not given in full)
IC50 [1]: 162 nM
IC50 [2]: 84 nM

SMILES: Cc1c(CCc2nnn[nH]2)cccc1NC(=O)C(c1ccc(-c2cncc(Cl)c2)cc1)C1CCCC1 (stereo not given)
IC50 [3]: 0.152 µM

SMILES: Cc1c(NC(=O)[C@H](c2ccc(-c3cncc(Cl)c3)cc2)C2CCCC2)cccc1[C@H](C)CC(=O)O
IC50 [1]: 8460 nM
IC50 [2]: 3080 nM

SMILES: Cc1c(CCC(=O)O)cccc1NC(=O)C(c1cccc(-c2cccnc2)c1)C1CCCC1 (stereo not given)
IC50 [3]: > 20 µM

SMILES: CCc1cncc(-c2ccc(C(C(=O)Nc3cccc([C@@H](CC)CC(=O)O)c3C)C3CCCC3)cc2)c1 (stereo not given in full)
hepatic extraction ratio at […], 1 µM [4]: 0.44
IC50 [1]: 190 nM
IC50 [2]: 203 nM
